The data set is described as follows: gradient 5% acetonitrile 3 min, to 50% in 2 min, to 85% in 15 min, held 3 min, 100 µL/min. Conditions: column: Zorbax Extend-C18 2.1 x 50 mm; eluents: water / acetonitrile, 0.1% formic acid. The method, boiled down: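 Pure standards were run in mixtures of ~100 molecules by HPLC coupled to a quadrupole time-of-flight mass spectrometer. The column was a Zorbax Extend-C18 (2.1 × 50 mm, 1.8 μm) at 100 μL/min, with water and acetonitrile each containing 0.1% formic acid, in positive and negative ionization mode. Dead and dwell volumes were 40 μL and 900 μL. Retention time was taken from computationally picked adduct peaks, each manually inspected, with data collected over 3 months.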
For `O=C(CN1C(=O)C2CCCCN2c2ccc(C(=O)N3CCCC3)cc21)Nc1ccc2c(c1)OCCO2` (centres undefined), the RP-LC retention time came out at 779 s.

Compound `Cn1nc(-c2ccc(NC(=O)c3cccc4ccccc34)cc2)ccc1=O` displayed an RP-LC retention time of 763 s.

In the case of `CCn1c(=O)c(N2CCC(C(=O)NCCc3ccco3)CC2)nc2cccnc21`, the RP-LC retention time stood at 828 s.

In the case of `COc1ccc(-c2noc(C3CCCN3C(=O)c3cc(Cl)ccc3OC)n2)cc1` (centres undefined), the RP-LC retention time is 1020 s.

Consider `O=C(NC1CCCCC1)C1CCCN(c2nccn3nc(-c4ccccc4Cl)cc23)C1` (centres undefined), for which the RP-LC retention time was 976 s.

Compound `Cc1ccc(NC(=O)Cn2nc3c(N4CCCCCC4)nccn3c2=O)c(C)c1` gave an RP-LC retention time of 714 s.

`c1cc(-c2noc(-c3n[nH]c4c3CCCC4)n2)cc(-c2ccn[nH]2)c1` came in with an RP-LC retention time of 836 s.

Compound `Cn1c(=O)c(N2CCC(C(=O)NCCCN3CCCC3=O)CC2)nc2ccccc21` had an RP-LC retention time of 645 s.

`CCCc1ccc(S(=O)(=O)N2CCC(c3noc(-c4ccc(C)cc4)n3)CC2)cc1` returned an RP-LC retention time of 1370 s.

Compound `CC(C)c1ccc(-n2nc(N3CCN(C(=O)c4ccc5c(c4)OCO5)CC3)ccc2=O)cc1` had an RP-LC retention time of 914 s.

`Cc1[nH]c2ccccc2c1C(=O)C(=O)Nc1ccccc1` had an RP-LC retention time of 816 s.

On to `Cc1ccn2cc(-c3ccc(NC(=O)CCCc4ccccc4)cc3)nc2n1`, for which the RP-LC retention time stood at 694 s.

As to `O=C(Nc1ccc(F)cc1)c1cnc(-c2ccc(F)cc2)nc1-c1ccncc1`, the RP-LC retention time came out at 898 s.

Take `CC1CCN(c2ccc(NC(=O)CN3C(=O)CN(C)C(=O)c4ccccc43)cc2)CC1`: the RP-LC retention time was determined as 671 s.

Take `CSc1ccc(CNC(=O)Cn2c(=O)c3cccn3c3ccc(F)cc32)cc1`: the RP-LC retention time worked out at 861 s.

Compound `Cc1ccc(-c2cc(C(F)(F)F)n3nc(C(=O)O)cc3n2)cc1` showed an RP-LC retention time of 943 s.

For the compound `CCCCNC(=O)c1cc(NC(=O)C2CCC2)cc2nc(C)ccc12`, the RP-LC retention time is 644 s.

In turn, `COc1ccc(C2(C(=O)N3CCn4ccnc4C3C(C)C)CC2)cc1` (centres undefined) had an RP-LC retention time of 568 s.

`COc1cccc(CC(=O)N2CCCC2c2cc(C)on2)c1` (centres undefined) displayed an RP-LC retention time of 757 s.

`CC(=O)Nc1ccc(S(=O)(=O)NCCc2csc(C)n2)cc1` yielded an RP-LC retention time of 600 s.

`COc1ccc(C2(C(=O)N3CCN(S(=O)(=O)c4c(C)nn(C)c4C)CC3)CC2)cc1` showed an RP-LC retention time of 754 s.

Turning to `COc1ccc(-c2nc3ncccn3c2Nc2ccccc2C)cc1`, the RP-LC retention time was 705 s.

`COc1ccccc1N1CCN(c2cc(SCC(=O)Nc3c(C)cccc3C)ncn2)CC1` displayed an RP-LC retention time of 958 s.

Turning to `COc1ccc(CNC(=O)Nc2ccc(-c3nc(-c4cc(C)ccc4C)co3)cc2)cc1`, the RP-LC retention time was determined as 1200 s.

`CC(=O)C1CC[C@H]2[C@@H]3CC[C@@H]4CC(=O)CC[C@]4(C)[C@H]3CC[C@]12C` (some centres undefined) registered an RP-LC retention time of 1050 s.

In the case of `O=C(NCCc1csc(-c2ccc(F)cc2)n1)Oc1ccccc1`, the RP-LC retention time was determined as 944 s.

Compound `Cc1ccc(NC(=O)CSc2ccc(N3CCCC(C(=O)NC4CC4)C3)nn2)cc1C` (centres undefined) had an RP-LC retention time of 628 s.

Compound `Cc1ccc(NC(=O)Cn2nc(N3CCCCCC3)c3ccccc3c2=O)cc1F` returned an RP-LC retention time of 1170 s.

`O=C(Cc1ccc(F)cc1)N1CCC2(CC1)N=C(c1ccc(Cl)cc1)NO2`: the RP-LC retention time came out at 889 s.

In turn, `CC1CCN(C(=O)Cc2nnc3cc(-c4nc(C5CC5)no4)ccn23)CC1` showed an RP-LC retention time of 759 s.

With `Cc1ccc(NC(=O)N2CCCC2c2c(C)noc2C)cc1` (centres undefined), the RP-LC retention time was determined as 728 s.

For `O=C(NCc1ccc2c(c1)OCO2)C1CCN(c2cncnc2N2CCCCC2)CC1`, the RP-LC retention time worked out at 659 s.

`O=c1c2sccc2n(Cc2nc(-c3ccc(F)cc3)no2)c(=O)n1Cc1ccccc1` returned an RP-LC retention time of 1030 s.

`CC1(C)Cc2cccc(OCC(=O)N3CCC(c4nnc(-c5ccco5)s4)CC3)c2O1` gave an RP-LC retention time of 827 s.

In turn, `CCN1CCN(CCNC(=O)c2c(-c3ccc(Br)s3)noc2C)CC1` came in with an RP-LC retention time of 618 s.

Regarding `CCCN(CC1CCOC1)C(=O)c1ccc(F)cc1Cl` (centres undefined), the RP-LC retention time amounted to 773 s.

In the case of `Cc1c(Cl)cccc1S(=O)(=O)NCC1CCN(C(=O)c2cc3ccccc3o2)CC1`, the RP-LC retention time came to 934 s.

In the case of `CCCNC(=O)c1nc2cc(C)c(C)cc2n(C)c1=O`, the RP-LC retention time amounted to 747 s.

In turn, `COc1ccc(-c2noc(C3CCCN3C(=O)c3c(OC)cccc3OC)n2)cc1` (centres undefined) displayed an RP-LC retention time of 960 s.

`Cc1ccccc1OCC(=O)Nc1ccc2c(c1)Sc1ncccc1C(=O)N2C(C)C`: the RP-LC retention time worked out at 972 s.

For the compound `COc1ccc(-c2noc(C3CC(=O)N(c4cc(C)cc(C)c4)C3)n2)cc1` (centres undefined), the RP-LC retention time came to 1040 s.

`O=C(c1c[nH]c2ccccc12)N1CCC(c2nc(-c3ccccc3)no2)C1` (centres undefined) displayed an RP-LC retention time of 901 s.

For the compound `CCCNC(=O)C1CCN(c2ccc(SCC(=O)Nc3cccc(CC)c3)nn2)CC1`, the RP-LC retention time amounted to 674 s.

Take `CC(C)OCCCNc1nc(Nc2ccc3c(c2)OCO3)c2cnn(-c3ccccc3)c2n1`: the RP-LC retention time is 1140 s.

Compound `CC(C)CCNC(=O)C1CCN(S(C)(=O)=O)c2cc(Cl)ccc2O1` (centres undefined) showed an RP-LC retention time of 923 s.

With `CCCN1CCN(C(=O)CN2C(=O)C3CCCCN3c3ccc(C(=O)N4CCCCC4)cc32)CC1` (centres undefined), the RP-LC retention time was 652 s.

`CCCN1CCN(c2cc(C(=O)O)c3cc(NS(=O)(=O)c4ccc(CC)cc4)ccc3n2)CC1` showed an RP-LC retention time of 642 s.

In the case of `Cc1cc(C)cc(C(=O)N2CCCC(C(=O)NCCN(C)C)C2)c1` (centres undefined), the RP-LC retention time turned out to be 599 s.

For `COc1ccc(NC(=O)Cn2nc3n(c2=O)CCCC3)cc1`, the RP-LC retention time came to 634 s.

Compound `Nc1ccccc1NC(=O)c1ccc(CNc2nccc(-c3cccnc3)n2)cc1` displayed an RP-LC retention time of 664 s.

`Cc1c(C(=O)N2CCCC2)cnn1-c1ncccc1-c1nc(C2CC2)no1` gave an RP-LC retention time of 706 s.

In turn, `COC(=O)c1cn(CC(=O)NCc2cc3c(cc2OC)OCCCO3)c2ccccc12` displayed an RP-LC retention time of 897 s.

In the case of `CCn1cnc2ccc(-c3noc(COc4ccccc4C)n3)cc21`, the RP-LC retention time was found to be 807 s.

The compound `CN1CCCn2nc(C3CCN(C(=O)Nc4cccc(C#N)c4)CC3)cc2C1=O` had an RP-LC retention time of 656 s.

On to `O=C(Nc1ccccc1)Nc1c(-c2ccccc2)nc2ccccn12`, for which the RP-LC retention time is 636 s.

The compound `COc1ccc(-c2csc(NC3=NS(=O)(=O)c4ccccc43)n2)cc1` yielded an RP-LC retention time of 886 s.

As for `O=C(Nc1ccc(F)c(F)c1)C1CCN(S(=O)(=O)c2ccc(-c3noc(C4CC4)n3)cc2)CC1`, the RP-LC retention time stood at 1050 s.

`COc1cccc(CNC(=O)N2CCCC2c2cc(C)no2)c1` (centres undefined): the RP-LC retention time was determined as 706 s.

`NC(=O)CSc1nnc(N2CCN(C(=O)c3ccccc3[N+](=O)[O-])CC2)s1` gave an RP-LC retention time of 567 s.

`Cc1sc(-c2cc(C(F)(F)F)on2)cc1S(=O)(=O)NCCC1=CCCCC1` yielded an RP-LC retention time of 1320 s.

`O=C(CC1c2ncccc2C(=O)N1c1ccccc1)N1CCN(C2CCCCC2)CC1` (centres undefined): the RP-LC retention time is 591 s.

Compound `O=C(NCC1CCCO1)c1nc(-c2ccc(N3CCCC3)cc2)no1` (centres undefined) displayed an RP-LC retention time of 982 s.

In turn, `O=C(Cn1ncc2c(N3CCN(c4ccccn4)CC3)ncnc21)Nc1ccc(F)cc1F` yielded an RP-LC retention time of 615 s.

`CC1CN=C2C=C(N3CCN(C(=O)Nc4ccccc4C(F)(F)F)CC3)N=CN21` (centres undefined) came in with an RP-LC retention time of 615 s.

As to `Cn1nc(-c2nc(C3CC3)no2)c2c1CCN(C(=O)c1ccco1)C2`, the RP-LC retention time is 744 s.

`O=C(C1CC=CCC1)N1CCCC(COCc2ccccc2)C1` (centres undefined): the RP-LC retention time turned out to be 979 s.

In the case of `CS(=O)(=O)N1CCCc2cc(C(=O)NCc3ccccn3)ccc21`, the RP-LC retention time was 607 s.

As to `COc1ccc(CC(=O)N2CCC3(C2)C(=O)N(C)c2ccccc23)cc1` (centres undefined), the RP-LC retention time amounted to 782 s.

Consider `Cc1oc(-c2ccc(C(=O)NCC3COCCO3)cc2)nc1CN1CCc2ccccc21` (centres undefined), for which the RP-LC retention time amounted to 876 s.

Turning to `Cc1cccc(-c2noc(Cc3nc(-c4ccc5c(c4)OCO5)cs3)n2)c1`, the RP-LC retention time came out at 1200 s.

As for `O=S(=O)(c1ccc(-c2cc(C(F)(F)F)on2)o1)N1CCN(c2ncccn2)CC1`, the RP-LC retention time amounted to 1060 s.

In turn, `CCCNC(=O)Cc1c(C)nn(-c2nc(-c3ccc(C)cc3)cs2)c1C` displayed an RP-LC retention time of 1070 s.

Compound `O=C(NC1CCN(c2cc(-c3ccc(Cl)cc3)[nH]n2)C1)c1ccccn1` (centres undefined) returned an RP-LC retention time of 751 s.

Regarding `COc1ccc2nc(NCCn3cccn3)sc2c1`, the RP-LC retention time was found to be 599 s.

For the compound `Cc1sc(-c2cc(C(F)(F)F)on2)cc1S(=O)(=O)Nc1ccccc1Cl`, the RP-LC retention time was determined as 1180 s.

Compound `COC(=O)[C@@H](N)CSC/C=C(\C)CC/C=C(\C)CCC=C(C)C` displayed an RP-LC retention time of 961 s.

Compound `Cn1nc(C(=O)Nc2ccccc2)c2c1CCN(C(=O)Nc1cccc(Br)c1)C2` displayed an RP-LC retention time of 914 s.

Consider `C=CCN1C(=O)COc2ccc(-c3nc(NC(=O)c4cccs4)sc3C)cc21`, for which the RP-LC retention time came out at 998 s.

`COC(=O)C1=CN(c2cccc(OC)c2)c2cc(F)ccc2S1(=O)=O` displayed an RP-LC retention time of 857 s.

The values are drawn from the METLIN SMRT retention time set (Domingo-Almenara et al. 2019).
